According to patent publication US20210084902A1, “FUNGICIDAL MIXTURE COMPRISING SUBSTITUTED 3-PHENYL-5-(TRIFLUOROMETHYL)-1,2,4-OXADIAZOLES” (BASF SE, priority 2017, published 2021):
Where two headings read alike, the source gives them in different places.

Legend:
Format in all cases: cell-based
[1] = system: Colletotrichum orbiculare; assay: Fungicidal activity against Colletotrichum orbiculare in the microtiterplate test; conditions: Colletotrichum orbiculare, read-out: Observed efficacy
[2] = system: Septoria tritici; assay: Fungicidal activity against Septoria tritici, micro titer plate (MTP) test; conditions: Zymoseptoria tritici, 168 h, Table V.4, component B alone, read-out: Observed efficacy
[3] = system: Leptosphaeria nodorum; assay: Fungicidal activity against Leptosphaeria nodorum, microtiter plate (MTP) test; conditions: Parastagonospora nodorum, 168 h, read-out: Observed efficacy
[4] = system: Botrytis cinerea; assay: Fungicidal activity against Botrytis cinerea, micro titer plate (MTP) test; conditions: Botrytis cinerea, 168 h, component B alone, read-out: Observed efficacy
[5] = system: Pyricularia oryzae; assay: microbe, parasite or virus in culture; conditions: Pyricularia oryzae, 168 h, read-out: Observed efficacy

Row | Compound | inhibition of growth at 0.001 ppm ([1]; 0.001 ppm) | inhibition of growth at […] ([1]; 0.016 ppm) | inhibition of growth at 6.3e-05 ppm ([2]; 0.000063 ppm) | inhibition of growth at […] ([3]; 0.00025 ppm) | inhibition of growth at 0.004 ppm ([3]; 0.004 ppm) | inhibition of growth at 0.004 ppm ([4]; 0.004 ppm) | inhibition of growth at […] ([4]; 0.016 ppm) | inhibition of growth at 0.001 ppm [5] | inhibition of growth at […] ([1]; 0.25 ppm) | inhibition of growth at […] ([2]; 0.25 ppm) | inhibition of growth at […] ([3]; 0.25 ppm) | inhibition of growth at 1 ppm ([3]; 1 ppm) | inhibition of growth at […] ([4]; 0.25 ppm) | inhibition of growth at 1 ppm ([4]; 1 ppm) | inhibition of growth at 1 ppm [5]
1 | COC(=O)N(OC)c1ccccc1COc1ccn(-c2ccc(Cl)cc2)n1 [Pyraclostrobin, pyraclostrobin] | 32% | 60% | 21% | 22% | 59% | 0% | 14% | 46% |  |  |  |  |  |  | 
2 | O=C1C2CC=CCC2C(=O)N1SC(Cl)(Cl)Cl (stereo not drawn) [Captan, captan] |  |  |  |  |  |  |  |  | 21% | 22% | 13% | 44% | 20% | 73% | 53%
